Measurements reported in patent US10294202B2, “Pyrrolidinones as herbicides” (FMC Corporation, priority 2013, dated 2019).

Columns and labels:
kochia = experiment: Test D pre-/postemergence herbicide test; assay type: in vivo, Kochia scoparia; settings: Preemergence; for Plant response rating, Kochia: scale 0 to 100 (0 no effect, 100 complete control); for Plant response rating: 250 g ai/ha, Kochia, scale 0 to 100
How it was run: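 Plants were sown in silt loam for preemergence spraying or in a peat moss/vermiculite mix for postemergence spraying at 2 to 18 cm height. Formulations used a non-phytotoxic solvent mixture with a surfactant. After 7 to 21 days, responses were scored visually from 0 (no effect) to 100 (complete control).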

corn = experiment: Test E preemergence herbicide test; assay type: in vivo, Zea mays; parameters: key: 0 = no effect, 100 = complete control
How it was run: (§1)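 Response is a 0–100 visual rating against controls (100 = complete control), taken 21 days after preemergence treatment of seeded silt loam soil held in a greenhouse.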

velvetleaf = experiment: Test E preemergence herbicide test; assay type: in vivo, Abutilon theophrasti; parameters: key: 0 = no effect, 100 = complete control
How it was run: as §1

lambsquarters = experiment: Test E preemergence herbicide test; assay type: in vivo, Chenopodium album; parameters: key: 0 = no effect, 100 = complete control
How it was run: as §1

wild poinsettia = experiment: Test E preemergence herbicide test; assay type: in vivo, Euphorbia heterophylla; parameters: key: 0 = no effect, 100 = complete control
How it was run: as §1

field bindweed = experiment: Test E preemergence herbicide test; assay type: in vivo, Convolvulus arvensis; parameters: key: 0 = no effect, 100 = complete control
How it was run: as §1

watergrass, late = experiment: Test F flood (paddy) test; assay type: in vivo, Echinochloa oryzicola; settings: 21 d, scale 0-100
How it was run: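 Visual injury ratings (0 no effect to 100 complete control) were taken 21 d after treatment against untreated controls. Compounds went directly into paddy water held 3 cm above soil, applied at the 2.0–2.5-leaf stage in sterilized Tama silt loam under a 30/27 °C, 16-h greenhouse regime.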

Compound: O=C1NC[C@H](c2cccc(C(F)(F)F)c2)[C@H]1C(=O)Nc1ccccc1F [Compound 204, (3R,4S)—N-(2-fluorophenyl)-2-oxo-4-[3-(trifluoromethyl)phenyl]-3-pyrrolidinecarboxamide]
- Plant response rating, Kochia (kochia; 62 g ai/ha): 45
- Plant response rating, Kochia (kochia; 125 g ai/ha): 15
- Plant response rating, Kochia (kochia; 31 g ai/ha): 20
- Plant response rating (kochia): 70
- Plant response rating, Corn (corn; 31 g ai/ha): 0
- Plant response rating, Corn (corn; 62 g ai/ha): 0
- Plant response rating, Corn (corn; 125 g ai/ha): 0
- Plant response rating, Corn (corn; 250 g ai/ha): 40
- Plant response rating, Velvetleaf (velvetleaf; 31 g ai/ha): 0
- Plant response rating, Velvetleaf (velvetleaf; 62 g ai/ha): 0
- Plant response rating, Velvetleaf (velvetleaf; 125 g ai/ha): 0
- Plant response rating, Velvetleaf (velvetleaf; 250 g ai/ha): 0
- Plant response rating, Lambsquarters (lambsquarters; 31 g ai/ha): 98
- Plant response rating, Lambsquarters (lambsquarters; 62 g ai/ha): 98
- Plant response rating, Lambsquarters (lambsquarters; 125 g ai/ha): 90
- Plant response rating, Lambsquarters (lambsquarters; 250 g ai/ha): 65
- Plant response rating, Poinsettia, Wild (wild poinsettia; 31 g ai/ha): 0
- Plant response rating, Poinsettia, Wild (wild poinsettia; 62 g ai/ha): 0
- Plant response rating, Poinsettia, Wild (wild poinsettia; 125 g ai/ha): 20
- Plant response rating, Poinsettia, Wild (wild poinsettia; 250 g ai/ha): 20
- Plant response rating, Field Bindweed (field bindweed; 31 g ai/ha): 0
- Plant response rating, Field Bindweed (field bindweed; 62 g ai/ha): 0
- Plant response rating, Field Bindweed (field bindweed; 125 g ai/ha): 0
- Plant response rating, Field Bindweed (field bindweed; 250 g ai/ha): 30
- Plant response rating, Watergrass, Late (watergrass, late; 125 g ai/ha): 70
- Plant response rating, Watergrass, Late (watergrass, late; 250 g ai/ha): 98
- Plant response rating, Watergrass, Late (watergrass, late; 500 g ai/ha): 98

Compound: O=C1NC[C@H](c2cccc(C(F)(F)F)c2)[C@H]1C(=O)Nc1cccc(F)c1F [Compound 206]
- Plant response rating, Kochia (kochia; 62 g ai/ha): 60
- Plant response rating, Kochia (kochia; 125 g ai/ha): 70
- Plant response rating, Kochia (kochia; 31 g ai/ha): 45
- Plant response rating (kochia): 80
- Plant response rating, Corn (corn; 31 g ai/ha): 0
- Plant response rating, Corn (corn; 62 g ai/ha): 50
- Plant response rating, Corn (corn; 125 g ai/ha): 40
- Plant response rating, Corn (corn; 250 g ai/ha): 70
- Plant response rating, Velvetleaf (velvetleaf; 31 g ai/ha): 0
- Plant response rating, Velvetleaf (velvetleaf; 62 g ai/ha): 35
- Plant response rating, Velvetleaf (velvetleaf; 125 g ai/ha): 30
- Plant response rating, Velvetleaf (velvetleaf; 250 g ai/ha): 50
- Plant response rating, Lambsquarters (lambsquarters; 31 g ai/ha): 35
- Plant response rating, Lambsquarters (lambsquarters; 62 g ai/ha): 65
- Plant response rating, Lambsquarters (lambsquarters; 125 g ai/ha): 95
- Plant response rating, Lambsquarters (lambsquarters; 250 g ai/ha): 98
- Plant response rating, Poinsettia, Wild (wild poinsettia; 31 g ai/ha): 0
- Plant response rating, Poinsettia, Wild (wild poinsettia; 62 g ai/ha): 10
- Plant response rating, Poinsettia, Wild (wild poinsettia; 125 g ai/ha): 0
- Plant response rating, Poinsettia, Wild (wild poinsettia; 250 g ai/ha): 25
- Plant response rating, Field Bindweed (field bindweed; 31 g ai/ha): 20
- Plant response rating, Field Bindweed (field bindweed; 62 g ai/ha): 20
- Plant response rating, Field Bindweed (field bindweed; 125 g ai/ha): 30
- Plant response rating, Field Bindweed (field bindweed; 250 g ai/ha): 50
- Plant response rating, Watergrass, Late (watergrass, late; 64 g ai/ha): 90
- Plant response rating, Watergrass, Late (watergrass, late; 125 g ai/ha): 100
- Plant response rating, Watergrass, Late (watergrass, late; 250 g ai/ha): 100
- Plant response rating, Watergrass, Late (watergrass, late; 500 g ai/ha): 100
